The record followed here is patent publication US6127519A, “Calcitonin derivatives” (Tsumura & Co., priority 1990, dated 2000).

Several values for one entry are separate records, joined by “and”; a condition that tells them apart may be missing. Equal values may be shown once. Bridge positions count the residues as written; N and C are the ends. Peptide text beside a SMILES is read from it.

For the experiment, the system named is calcium concentration in the serum. As to the kind of experiment: Test 1: reduction of calcium level in serum after tail vein administration to rats. The experiment is classed as in vivo, rats of the Wistar strain. Particulars: 1 ml/kg tail vein, female Wistar rats. On the procedure:
Six-weeks-old female rats of the Wistar strain (each group consisting of 4 rats) were used as the test animal, and the peptides of the present invention obtained in the examples given hereinafter were tested at concentrations adjusted with a 1% aqueous solution of sodium acetate (pH 4,0) to which 0.1% bovine serum albumin (BSA) was added. The solution was adjusted to a concentration of 166 μg/ml 830 ng/ml or 83 ng/ml and administered with the tail vein in an amount of 1 ml/kg. The back of the rat was fixed and blood was collected just before the administration, and at predetermined intervals after the administration, from the neck vein. The amount of blood collected each time was 0.3 ml. The sampled blood was subjected to centrifugal separation at 3500 rpm for 20 minutes to separate serum and the calcium content in the separated serum was measured by TBA-380 (supplied by Toshiba) using a Wako calcium-measuring kit (o-cpc method), and the ratio of reduction of the calcium concentration in the serum was determined.

The mark [1] stands for this setting: concentration 830 ng/ml, 0 hour (just before administration).
Where [2] appears, read: concentration 830 ng/ml, 1 hour.
Where [3] appears, read: concentration 830 ng/ml, 2 hours.
[4] abbreviates: concentration 830 ng/ml, 4 hours.
The mark [5] stands for this setting: concentration 830 ng/ml, 6 hours.

With `CC[C@H](C)[C@H](NC(=O)[C@H](C)NC(=O)[C@@H](NC(=O)[C@H](CCC(N)=O)NC(=O)[C@@H]1CCCN1C(=O)[C@H](Cc1ccc(O)cc1)NC(=O)[C@@H](NC(=O)[C@H](CCC(N)=O)NC(=O)[C@H](CC(C)C)NC(=O)[C@H](CCCCN)NC(=O)[C@H](Cc1c[nH]cn1)NC(=O)[C@H](CC(C)C)NC(=O)[C@H](CCC(=O)O)NC(=O)[C@H](CCC(N)=O)NC(=O)[C@H](CO)NC(=O)[C@H](CC(C)C)NC(=O)[C@H](CCCCN)NC(=O)CNC(=O)[C@H](CC(C)C)NC(=O)[C@H](CCSC)NC(=O)[C@@H]1CSSC[C@H](N)C(=O)NCC(=O)N[C@@H](CC(N)=O)C(=O)N[C@@H](CC(C)C)C(=O)N[C@@H](CO)C(=O)N[C@@H]([C@@H](C)O)C(=O)N1)[C@@H](C)O)[C@@H](C)O)C(=O)NCC(=O)N[C@H](C(=O)NCC(=O)N[C@@H](C)C(=O)N1CCC[C@H]1C(N)=O)C(C)C` [Peptide No. 1] (H-CGNLSTCMLGKLSQELHKLQTYPQTAIGVGAP-NH2; disulfide 1-7), the “Serum calcium level as percent of pre-dose baseline” value (“Serum calcium level as percent” for short) (concentration 83 ng/ml, 0 hour (just before administration)) is on record as 100.0%; the “Serum calcium level as percent” value (concentration 83 ng/ml, 1 hour) worked out at 74.3%; the “Serum calcium level as percent” value (concentration 83 ng/ml, 2 hours) worked out at 81.1%; the “Serum calcium level as percent” value (concentration 83 ng/ml, 4 hours) is 86.9%; the “Serum calcium level as percent” value (concentration 83 ng/ml, 6 hours) was found to be 83.5%; the “Serum calcium level as percent” value under setting [1] is reported as 100.0%. For the same compound, the “Serum calcium level as percent” value is 85.6% and 74.3% and 70.2% under setting [2]; 81.6% and 68.4% and 64.4% under setting [3]; 76.8% and 68.0% and 60.6% under setting [4]; 88.5% and 84.8% and 78.3% under setting [5].
As to `CC[C@H](C)[C@H](NC(=O)[C@H](C)NC(=O)[C@@H](NC(=O)[C@H](CCC(N)=O)NC(=O)[C@@H]1CCCN1C(=O)[C@H](Cc1ccc(O)cc1)NC(=O)[C@@H](NC(=O)[C@H](CCC(N)=O)NC(=O)[C@H](CCCCN)NC(=O)[C@H](Cc1c[nH]cn1)NC(=O)[C@H](CC(C)C)NC(=O)[C@H](CCC(=O)O)NC(=O)[C@H](CCC(N)=O)NC(=O)[C@H](CO)NC(=O)[C@H](CC(C)C)NC(=O)[C@H](CCCCN)NC(=O)CNC(=O)[C@H](CC(C)C)NC(=O)[C@H](CCSC)NC(=O)[C@@H]1CSSC[C@H](N)C(=O)NCC(=O)N[C@@H](CC(N)=O)C(=O)N[C@@H](CC(C)C)C(=O)N[C@@H](CO)C(=O)N[C@@H]([C@@H](C)O)C(=O)N1)[C@@H](C)O)[C@@H](C)O)C(=O)NCC(=O)N[C@H](C(=O)NCC(=O)N[C@@H](C)C(=O)N1CCC[C@H]1C(N)=O)C(C)C` [Peptide No. 2] (H-CGNLSTCMLGKLSQELHKQTYPQTAIGVGAP-NH2; disulfide 1-7), the “Serum calcium level as percent” value runs as follows: under setting [1], 100.0%; under setting [2], 86.7%; under setting [3], 87.7%; under setting [4], 92.8%; under setting [5], 90.1%.
For `CC[C@H](C)[C@H](NC(=O)[C@H](C)NC(=O)[C@@H](NC(=O)[C@H](CCC(N)=O)NC(=O)[C@@H]1CCCN1C(=O)[C@H](Cc1ccc(O)cc1)NC(=O)[C@H](CC(C)C)NC(=O)[C@H](CCCCN)NC(=O)[C@H](Cc1c[nH]cn1)NC(=O)[C@H](CC(C)C)NC(=O)[C@H](CCC(=O)O)NC(=O)[C@H](CCC(N)=O)NC(=O)[C@H](CO)NC(=O)[C@H](CC(C)C)NC(=O)[C@H](CCCCN)NC(=O)CNC(=O)[C@H](CC(C)C)NC(=O)[C@H](CCSC)NC(=O)[C@@H]1CSSC[C@H](N)C(=O)NCC(=O)N[C@@H](CC(N)=O)C(=O)N[C@@H](CC(C)C)C(=O)N[C@@H](CO)C(=O)N[C@@H]([C@@H](C)O)C(=O)N1)[C@@H](C)O)C(=O)NCC(=O)N[C@H](C(=O)NCC(=O)N[C@@H](C)C(=O)N1CCC[C@H]1C(N)=O)C(C)C` [Peptide No. 3] (H-CGNLSTCMLGKLSQELHKLYPQTAIGVGAP-NH2; disulfide 1-7) the same measures were 100.0%, 97.0%, 94.9%, 86.4% and 89.9%.
For `CC[C@H](C)[C@H](NC(=O)[C@H](C)NC(=O)[C@@H](NC(=O)[C@H](CCC(N)=O)NC(=O)[C@@H]1CCCN1C(=O)[C@H](Cc1ccc(O)cc1)NC(=O)[C@@H](NC(=O)[C@H](CCC(N)=O)NC(=O)CNC(=O)[C@H](CCCCN)NC(=O)[C@H](Cc1c[nH]cn1)NC(=O)[C@H](CC(C)C)NC(=O)[C@H](CCC(=O)O)NC(=O)[C@H](CCC(N)=O)NC(=O)[C@H](CO)NC(=O)[C@H](CC(C)C)NC(=O)[C@H](CCCCN)NC(=O)CNC(=O)[C@H](CC(C)C)NC(=O)[C@H](CCSC)NC(=O)[C@@H]1CSSC[C@H](N)C(=O)NCC(=O)N[C@@H](CC(N)=O)C(=O)N[C@@H](CC(C)C)C(=O)N[C@@H](CO)C(=O)N[C@@H]([C@@H](C)O)C(=O)N1)[C@@H](C)O)[C@@H](C)O)C(=O)NCC(=O)N[C@H](C(=O)NCC(=O)N[C@@H](C)C(=O)N1CCC[C@H]1C(N)=O)C(C)C` [Peptide No. 4] (H-CGNLSTCMLGKLSQELHKGQTYPQTAIGVGAP-NH2; disulfide 1-7) the same measures were 100.0%, 90.5%, 92.0%, 95.5% and 86.7%.
For the compound `CC[C@H](C)[C@H](NC(=O)[C@H](C)NC(=O)[C@@H](NC(=O)[C@H](CCC(N)=O)NC(=O)[C@@H]1CCCN1C(=O)[C@H](Cc1ccc(O)cc1)NC(=O)[C@@H](NC(=O)[C@H](CCC(N)=O)NC(=O)[C@H](CC(C)C)NC(=O)[C@H](CCCCN)NC(=O)[C@H](Cc1c[nH]cn1)NC(=O)[C@H](CC(C)C)NC(=O)[C@H](CCC(=O)O)NC(=O)[C@H](CCC(N)=O)NC(=O)[C@H](CO)NC(=O)[C@H](CC(C)C)NC(=O)[C@H](CCCCN)NC(=O)CNC(=O)[C@H](CC(C)C)NC(=O)[C@H](CCSC)NC(=O)[C@@H]1CSSC[C@H](N)C(=O)NCC(=O)N[C@@H](CC(N)=O)C(=O)N[C@@H](CC(C)C)C(=O)N[C@@H](CO)C(=O)N[C@@H]([C@@H](C)O)C(=O)N1)[C@@H](C)O)[C@@H](C)O)C(=O)NCC(=O)N[C@@H](CO)C(=O)NCC(=O)N[C@H](C(=O)N1CCC[C@H]1C(N)=O)[C@@H](C)O` [Peptide No. 5] (H-CGNLSTCMLGKLSQELHKLQTYPQTAIGSGTP-NH2; disulfide 1-7), the “Serum calcium level as percent” value is 100.0% under setting [1]; 76.4% under setting [2]; 74.2% under setting [3]; 70.7% under setting [4]; 76.4% under setting [5].
`CC[C@H](C)[C@H](NC(=O)[C@H](C)NC(=O)[C@@H](NC(=O)[C@H](CCC(N)=O)NC(=O)[C@@H]1CCCN1C(=O)[C@H](Cc1ccc(O)cc1)NC(=O)[C@@H](NC(=O)[C@H](CCC(N)=O)NC(=O)[C@H](CCCCN)NC(=O)[C@H](Cc1c[nH]cn1)NC(=O)[C@H](CC(C)C)NC(=O)[C@H](CCC(=O)O)NC(=O)[C@H](CCC(N)=O)NC(=O)[C@H](CO)NC(=O)[C@H](CC(C)C)NC(=O)[C@H](CCCCN)NC(=O)CNC(=O)[C@H](CC(C)C)NC(=O)[C@H](CCSC)NC(=O)[C@@H]1CSSC[C@H](N)C(=O)NCC(=O)N[C@@H](CC(N)=O)C(=O)N[C@@H](CC(C)C)C(=O)N[C@@H](CO)C(=O)N[C@@H]([C@@H](C)O)C(=O)N1)[C@@H](C)O)[C@@H](C)O)C(=O)NCC(=O)N[C@@H](CO)C(=O)NCC(=O)N[C@H](C(=O)N1CCC[C@H]1C(N)=O)[C@@H](C)O` [Peptide No. 6] (H-CGNLSTCMLGKLSQELHKQTYPQTAIGSGTP-NH2; disulfide 1-7): the “Serum calcium level as percent” value stood at 100.0% under setting [1]; 73.1% under setting [2]; 68.1% under setting [3]; 74.6% under setting [4]; 92.1% under setting [5].
For `CC[C@H](C)[C@H](NC(=O)[C@H](C)NC(=O)[C@@H](NC(=O)[C@H](CCC(N)=O)NC(=O)[C@@H]1CCCN1C(=O)[C@H](Cc1ccc(O)cc1)NC(=O)[C@H](CC(C)C)NC(=O)[C@H](CCCCN)NC(=O)[C@H](Cc1c[nH]cn1)NC(=O)[C@H](CC(C)C)NC(=O)[C@H](CCC(=O)O)NC(=O)[C@H](CCC(N)=O)NC(=O)[C@H](CO)NC(=O)[C@H](CC(C)C)NC(=O)[C@H](CCCCN)NC(=O)CNC(=O)[C@H](CC(C)C)NC(=O)[C@H](CCSC)NC(=O)[C@@H]1CSSC[C@H](N)C(=O)NCC(=O)N[C@@H](CC(N)=O)C(=O)N[C@@H](CC(C)C)C(=O)N[C@@H](CO)C(=O)N[C@@H]([C@@H](C)O)C(=O)N1)[C@@H](C)O)C(=O)NCC(=O)N[C@@H](CO)C(=O)NCC(=O)N[C@H](C(=O)N1CCC[C@H]1C(N)=O)[C@@H](C)O` [Peptide No. 7] (H-CGNLSTCMLGKLSQELHKLYPQTAIGSGTP-NH2; disulfide 1-7) the same measures were 100.0%, 81.9%, 91.7%, 97.4% and 100.0%.
